# Experimental data reported in US20110293727A1, “CHIMERIC THERAPEUTICS, COMPOSITIONS, AND METHODS FOR USING SAME” (priority 2008, published 2011).
# Tested on: inhibitory dsRNA
# Assay: K9 protein-RNA complex by electrophoresis of labeled inhibitory dsRNA and K9 protein
# Format: binding
# Conditions: 4 M Urea, 10 mM Hepes, pH 8.15; 1.5% agarose gel; FIG. 5
# Description: Inhibitory dsRNA 3′-labeled with Dy547 is purchased from Dharmacon (Lafayette, Colo.). Labeled and unlabeled inhibitory dsRNA solutions are diluted to 4 μM in 4 M Urea, 10 mM Hepes, pH 8.15. […] Labeled and unlabeled protein solutions are diluted to 3 μM in 4M Urea.
# Labeled and unlabeled RNA and protein are used in separate binding reactions. Samples are run on a 1.5% TAE-agarose gel for 35 minutes at 110 volts.
# A typhoon phosphoimager(GE) is used to visualize the cy5-only, DY547-only and cy5/DY547 labeled RNA protein complexes. Filters are employed to separately detect Dy547 (FIG. 5A) and cy5 (FIG. 5B) fluorescent labels. To image all fluorescence on the gel, cy5-filtered and dy547-filtered images are overlayed (FIG. 5C).
substance,measurement,value
"K9: modified HBV core protein (contains E77C), 9-lysine C-terminal tail, His tag, SEQ ID NO: 10 [Mutant K9]",complex formation of K9 protein with inhibitory dsRNA (shifted band),form a complex in solution
